Measurements: ChEMBL document CHEMBL1201862, “PubChem BioAssay data set” (2004)
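Step 1: Grow cells in 96-well plates. Step 2: Expose to compound for 48 hours at 5 concentrations. Step 3: Interpolate endpoints linearly; if unreached, use highest concentration. Here, GI50 denotes the concentration required for 50% inhibition of growth.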 Calls of active or inactive are those of the source. No stated cut-off is given here; in the data, active = GI50 up to about 1.1 µM and inactive = higher.

How the values were obtained:
Assay in all cases: NCI-60 cell line screen, 48 h
BT-549 = system: BT-549
CAKI-1 = system: CAKI-1
HCT-116 = system: HCT-116
HOP-92 = system: HOP-92
MCF7 = system: MCF7
MDA-MB-435 = system: MDA-MB-435
MOLT-4 = system: MOLT-4
NCI/ADR-RES = system: NCI/ADR-RES
OVCAR-4 = system: OVCAR-4
RPMI-8226 = system: RPMI-8226
SF-268 = system: SF-268
SK-MEL-28 = system: SK-MEL-28
SK-MEL-2 = system: SK-MEL-2
SN12C = system: SN12C
SNB-75 = system: SNB-75
SR = system: SR
SW-620 = system: SW-620
T47D = system: T47D
TK-10 = system: TK-10
SF-539 = system: SF-539

SMILES | GI50 (BT-549) | GI50 (CAKI-1) | GI50 (HCT-116) | GI50 (HOP-92) | GI50 (MCF7) | GI50 (MDA-MB-435) | GI50 (MOLT-4) | GI50 (NCI/ADR-RES) | GI50 (OVCAR-4) | GI50 (RPMI-8226) | GI50 (SF-268) | GI50 (SK-MEL-28) | GI50 (SK-MEL-2) | GI50 (SN12C) | GI50 (SNB-75) | GI50 (SR) | GI50 (SW-620) | GI50 (T47D) | GI50 (TK-10) | GI50 (SF-539)
Cc1[nH]c(=O)nc(S)c1C(=O)Nc1cccc2cc3ccccc3cc12 | > 100 µM (inactive) | > 100 µM (inactive) | > 100 µM (inactive) | > 100 µM (inactive) | > 100 µM (inactive) | > 100 µM (inactive) | > 100 µM (inactive) | > 100 µM (inactive) | > 100 µM (inactive) | > 100 µM (inactive) | > 100 µM (inactive) | > 100 µM (inactive) | > 100 µM (inactive) | > 100 µM (inactive) | > 100 µM (inactive) | > 100 µM (inactive) | > 100 µM (inactive) | > 100 µM (inactive) | > 100 µM (inactive) | –
COC1C(OC(N)=O)C(O)C(Oc2ccc3c(O)c(NC(=O)c4ccc(O)c(CC=C(C)C)c4)c(=O)oc3c2C)OC1(C)C (configuration not stated) | > 100 µM (inactive) | > 100 µM (inactive) | > 100 µM (inactive) | – | > 100 µM (inactive) | 71.8 µM (inactive) | 48 µM (inactive) | > 100 µM (inactive) | – | 28.4 µM (inactive) | > 100 µM (inactive) | 73.8 µM (inactive) | > 100 µM (inactive) | > 100 µM (inactive) | > 100 µM (inactive) | 18.4 µM (inactive) | > 100 µM (inactive) | > 100 µM (inactive) | > 10 µM (inactive) | > 100 µM (inactive)
CCCCNC(=S)Nc1nc(C(=O)NNS(=O)(=O)c2ccccc2)cs1 | 32.7 µM (inactive) | 27.7 µM (inactive) | 26.2 µM (inactive) | 64.7 µM (inactive) | 42 µM (inactive) | 21.4 µM (inactive) | 34.8 µM (inactive) | 60.3 µM (inactive) | – | 31.2 µM (inactive) | 27.8 µM (inactive) | – | 22.6 µM (inactive) | 25.6 µM (inactive) | 35.6 µM (inactive) | 41.1 µM (inactive) | – | 71.8 µM (inactive) | 36 µM (inactive) | 33.6 µM (inactive)
O=Cc1ccccc1B(O)O | 15.1 µM (inactive) | 47.5 µM (inactive) | 43.2 µM (inactive) | – | 29.4 µM (inactive) | 99.1 µM (inactive) | 1.09 µM (active) | 52 µM (inactive) | 0.368 µM (active) | < 0.01 µM (active) | > 100 µM (inactive) | 68.4 µM (inactive) | > 100 µM (inactive) | > 100 µM (inactive) | 43.8 µM (inactive) | < 0.01 µM (active) | 25.7 µM (inactive) | 0.0147 µM (active) | 55.6 µM (inactive) | > 100 µM (inactive)
CC(C)(C)OC(=O)[C@@H]1CCC(=O)N1C1(c2ccccc2)c2ccccc2-c2ccccc21 | > 100 µM (inactive) | 88.5 µM (inactive) | 37.8 µM (inactive) | 26.3 µM (inactive) | 67.6 µM (inactive) | 30.1 µM (inactive) | 25.9 µM (inactive) | > 100 µM (inactive) | 28.6 µM (inactive) | – | > 100 µM (inactive) | 28.6 µM (inactive) | 26.2 µM (inactive) | 39.3 µM (inactive) | 25.9 µM (inactive) | 38.5 µM (inactive) | 30.5 µM (inactive) | 44.9 µM (inactive) | > 100 µM (inactive) | 17.1 µM (inactive)
N#CCCC1(CCC#N)S(=O)(=O)OCCOS1(=O)=O | 6.04 µM (inactive) | 40.6 µM (inactive) | 40.9 µM (inactive) | – | 34.2 µM (inactive) | 47.6 µM (inactive) | 24.7 µM (inactive) | 19.2 µM (inactive) | 20.7 µM (inactive) | 37 µM (inactive) | 32.9 µM (inactive) | 50 µM (inactive) | 42.2 µM (inactive) | 29.6 µM (inactive) | 32.1 µM (inactive) | 29.6 µM (inactive) | 24.1 µM (inactive) | 43.8 µM (inactive) | > 100 µM (inactive) | 8.34 µM (inactive)
O=C(N/S(=N/S(=O)(=O)c1ccc(Br)cc1)C(Cl)(Cl)Cl)c1ccccc1 (configuration not stated) | > 100 µM (inactive) | – | > 100 µM (inactive) | 26.2 µM (inactive) | > 100 µM (inactive) | > 100 µM (inactive) | > 100 µM (inactive) | > 100 µM (inactive) | > 100 µM (inactive) | > 100 µM (inactive) | > 100 µM (inactive) | > 100 µM (inactive) | > 100 µM (inactive) | > 100 µM (inactive) | 23.3 µM (inactive) | 70 µM (inactive) | > 100 µM (inactive) | > 100 µM (inactive) | > 100 µM (inactive) | > 100 µM (inactive)
Nc1ncnc2c1cnn2COCC(O)CO (configuration not stated) | > 100 µM (inactive) | > 100 µM (inactive) | > 100 µM (inactive) | > 100 µM (inactive) | > 100 µM (inactive) | > 100 µM (inactive) | > 100 µM (inactive) | > 100 µM (inactive) | > 100 µM (inactive) | > 100 µM (inactive) | > 100 µM (inactive) | > 100 µM (inactive) | > 100 µM (inactive) | > 100 µM (inactive) | – | > 100 µM (inactive) | > 100 µM (inactive) | > 100 µM (inactive) | > 100 µM (inactive) | > 100 µM (inactive)
COc1ccc(/N=N/C(=N\c2ccc(F)cc2)c2ccc(N(CCC#N)CCC#N)cc2)cc1 | 17.5 µM (inactive) | 81.8 µM (inactive) | 32.6 µM (inactive) | 25.6 µM (inactive) | 28.4 µM (inactive) | 39.2 µM (inactive) | 31.2 µM (inactive) | > 100 µM (inactive) | 40.9 µM (inactive) | 39.2 µM (inactive) | 35.2 µM (inactive) | 39 µM (inactive) | – | 31.8 µM (inactive) | 24 µM (inactive) | 21.7 µM (inactive) | 41.6 µM (inactive) | 11.2 µM (inactive) | 46.5 µM (inactive) | > 100 µM (inactive)
O=c1c(-c2ccccc2)nnc2n(Cc3ccccc3)c3ccccc3n12 | > 100 µM (inactive) | > 100 µM (inactive) | > 100 µM (inactive) | 28.6 µM (inactive) | > 100 µM (inactive) | > 100 µM (inactive) | > 100 µM (inactive) | > 100 µM (inactive) | > 100 µM (inactive) | – | > 100 µM (inactive) | > 100 µM (inactive) | > 100 µM (inactive) | > 100 µM (inactive) | > 100 µM (inactive) | > 100 µM (inactive) | > 100 µM (inactive) | > 100 µM (inactive) | > 100 µM (inactive) | 94.8 µM (inactive)
O=C1CSC(c2ccccc2O)N1c1ccc(-c2ccc(-n3c(-c4ccccc4)nc4ccccc4c3=O)cc2)cc1 (configuration not stated) | 13.7 µM (inactive) | 26.1 µM (inactive) | 29.5 µM (inactive) | 27.6 µM (inactive) | 28.1 µM (inactive) | 33.5 µM (inactive) | 25.4 µM (inactive) | 30.1 µM (inactive) | 31 µM (inactive) | 33.6 µM (inactive) | 45.3 µM (inactive) | 37.9 µM (inactive) | – | 74 µM (inactive) | 24.9 µM (inactive) | 54.3 µM (inactive) | 22.8 µM (inactive) | 23 µM (inactive) | 16.1 µM (inactive) | 32.1 µM (inactive)
CC(C)SC(=S)Sc1c(Cl)c(Cl)nc(Cl)c1Cl | 15.3 µM (inactive) | 2.84 µM (inactive) | 10.5 µM (inactive) | 7.69 µM (inactive) | 4.06 µM (inactive) | 7.38 µM (inactive) | 2.65 µM (inactive) | 20.3 µM (inactive) | 13.6 µM (inactive) | 1.75 µM (inactive) | 16.9 µM (inactive) | 18.7 µM (inactive) | 7.82 µM (inactive) | 13 µM (inactive) | – | 2.83 µM (inactive) | 2.88 µM (inactive) | 1.96 µM (inactive) | 5.97 µM (inactive) | 10.9 µM (inactive)
COc1ccc(C(CC2(c3ccc(OC)cc3)SCCCS2)NC(C)=O)cc1 (configuration not stated) | 41.9 µM (inactive) | 72.3 µM (inactive) | 56.1 µM (inactive) | 83.6 µM (inactive) | 37.2 µM (inactive) | 40.7 µM (inactive) | 30.1 µM (inactive) | 21.2 µM (inactive) | – | 38.5 µM (inactive) | 87.3 µM (inactive) | > 100 µM (inactive) | 41.3 µM (inactive) | 29.6 µM (inactive) | 32.4 µM (inactive) | 71.3 µM (inactive) | 47.8 µM (inactive) | 24.2 µM (inactive) | 39.8 µM (inactive) | > 100 µM (inactive)
CCOC(=O)C(c1c[nH]c2ccccc12)(c1c[nH]c2ccccc12)c1c[nH]c2ccccc12 | 44.4 µM (inactive) | 29.4 µM (inactive) | 29.2 µM (inactive) | 37 µM (inactive) | 19.7 µM (inactive) | 18.7 µM (inactive) | 5.87 µM (inactive) | 82.6 µM (inactive) | – | 11.7 µM (inactive) | 32.8 µM (inactive) | 33.7 µM (inactive) | 18.8 µM (inactive) | 43 µM (inactive) | 20.4 µM (inactive) | 23.6 µM (inactive) | 19.8 µM (inactive) | 16.2 µM (inactive) | 41.3 µM (inactive) | 42.4 µM (inactive)
NC(=O)c1cc2ccc(O)cc2o/c1=N/c1ccccc1 | 24.4 µM (inactive) | 19.3 µM (inactive) | 24.4 µM (inactive) | 34 µM (inactive) | 31.2 µM (inactive) | 23.3 µM (inactive) | 29 µM (inactive) | 23.8 µM (inactive) | 42.3 µM (inactive) | 20.7 µM (inactive) | 51.2 µM (inactive) | 35.6 µM (inactive) | 17.2 µM (inactive) | 22.3 µM (inactive) | 13.5 µM (inactive) | 16.1 µM (inactive) | 26.2 µM (inactive) | 16 µM (inactive) | 27.1 µM (inactive) | –
